Assay results as given in US9574190B2, “Screening method for peptide binding to target molecule in pH-dependent manner” (The University of Tokyo, priority 2012, dated 2017).
Bridge positions count the residues as written; N and C are the ends. Square brackets hold non-standard residues; d marks the D form. Peptide text beside a SMILES is read from it. Tyr(3-NO2) = N[C@@H](Cc1ccc(O)c([N+](=O)[O-])c1)C(=O)O; dTyr(3-NO2) = N[C@H](Cc1ccc(O)c([N+](=O)[O-])c1)C(=O)O; Arg(NO2) = N=C(NCCC[C@H](N)C(=O)O)N[N+](=O)[O-]

Target: T1, FcRn (Homo sapiens, UniProt P55899)
T1 construct: human soluble FcRn chemically biotinated with NHS-biotin
Assay: Biacore T100 measurement of dissociation constant of solid-phase synthesized peptide with immobilized FcRn
Assay type: binding
Description: In order to find whether a peptide alone interacts with FcRn in a pH dependent manner, the peptide 2G01D not having SGSGS on the C-terminal side of 8D-01 and amidated at the C-terminal was synthesized on a solid phase and a dissociation constant Kd binding constant was measured using Biacore T100 (GE Healthcare). FcRn was immobilized onto a sensor chip by an amine coupling method. The following is the peptide 2G01D:
On the other hand, a solid-phase synthesized peptide 2G01D was added as an analyte to a phosphate buffer having a pH 6.0 or 7.4 and a dissociation constant was measured.

koff (pH 6.0, phosphate buffer): 0.00394 s⁻¹ | kon (pH 6.0, phosphate buffer): 925000 M⁻¹ s⁻¹ | koff (pH 7.4, phosphate buffer): 0.00955 s⁻¹ | kon (pH 7.4, phosphate buffer): 32600 M⁻¹ s⁻¹
SMILES: CC(C)C[C@@H]1NC(=O)[C@H](Cc2ccc(O)c([N+](=O)[O-])c2)NC(=O)[C@H](CC(C)C)NC(=O)[C@@H]2CCCN2C(=O)[C@H](CC(=O)O)NC(=O)CNC(=O)[C@H](CCCNC(=N)N[N+](=O)[O-])NC(=O)[C@H](CC(N)=O)NC(=O)[C@H](Cc2ccc(O)cc2)NC(=O)[C@H](CC(C)C)NC(=O)[C@H](Cc2ccc(O)c([N+](=O)[O-])c2)NC(=O)[C@H](Cc2ccccc2)NC(=O)[C@@H](Cc2ccc(O)c([N+](=O)[O-])c2)NC(=O)CSC[C@@H](C(=O)NCC(N)=O)NC1=O [2G01D] ({CH2CO}-[dTyr(3-NO2)]F[Tyr(3-NO2)]LYN[Arg(NO2)]GDPL[Tyr(3-NO2)]LCG-NH2; thioether N-14)
